Laboratory results reported in patent US20260116865A1, “PHOSPHOR FOR DETECTING FIRE BLIGHT PATHOGEN AND USE THEREOF” (UNIVERSITY-INDUSTRY COOPERATION GROUP OF KYUNG HEE …, priority 2023, published 2026).

Key:
E. amylovora [1] = assay: Detection of E. amylovora on apple tree tissues (spray and swab methods); design: species or system Erwinia amylovora; details: tissue incubated with E. amylovora 10^8 CFU/mL
Experimental: Detection of E. amylovora on each plant tissue was then attempted by either spraying with a 100 μM solution of B-1 or swabbing with a cotton swab soaked in B-1 solution. Fluorescence changes were observed under a 365 nm flashlight.

E. amylovora [2] = assay: Detection of E. amylovora on agricultural tool surfaces (spraying); design: species or system Erwinia amylovora; details: 100 μM B-1 sprayed twice, 365 nm flashlight
Description: To evaluate whether the phosphor compound B-1 synthesized in Example 1 could detect E. amylovora present on objects, a spraying-based detection method was employed. As the test object, farming tools, which are known to be one of the causes of cross-contamination from infected plants in orchards, were used.
Specifically, to simulate farming tools exposed to E. amylovora, pruning shears and a trowel were either used to cut fire blight-infected plants directly or rubbed in soil contaminated with E. amylovora, as shown in FIG. 9a. Detection of E. amylovora was carried out by spraying 100 μM of B-1 solution twice onto the tool surfaces, and fluorescence images were captured under a 365 nm flashlight.

E. amylovora [3] = assay: Detection of E. amylovora on plant surfaces (spraying method), immature apples and apple blossoms; design: species or system Erwinia amylovora; details: 100 μM B-1 sprayed twice, 365 nm flashlight
Experimental: To evaluate whether E. amylovora present on actual plant surfaces could be detected using the phosphor compound B-1 synthesized in Example 1, a spraying-based detection was performed by applying B-1 to tissues (organs: fruits and blossoms) of a Fuji apple tree, and the procedure and results are shown in FIG. 7.
Specifically, to simulate plants infected with fire blight in fruit trees, E. amylovora quantified as described in Example 3 at concentrations of 10^2 to 10^8 CFU/mL was applied to immature apples (fruits) and apple blossoms using a brush, as shown in FIG. 7a. To allow E. amylovora to adhere to the plant surface, the samples were air-dried for 10 minutes. For detection, a 100 μM solution of B-1 diluted in […] was sprayed twice, and 10 minutes later, fluorescence changes were observed under a 365 nm flashlight.

E. amylovora [4] = assay: Limit of detection of B-1 for E. amylovora; type: cell-based, Erwinia amylovora; details: B-1 5 μM in DI H2O, emission 686 nm, excitation 551 nm, serially diluted E. amylovora
Experimental: E. amylovora was serially diluted and reacted with the phosphor compound B-1 synthesized in Example 1 to evaluate its minimum detection capability, and the results are shown in FIG. 4.
Specifically, quantified E. amylovora, as prepared in Example 3, was reacted with 5 μM of B-1 in DI H2O. Fluorescence intensity was then measured at 686 nm with an excitation wavelength of 551 nm, and the results were plotted on a graph.

[5] = Absorption and fluorescence properties of B-1 in aqueous solution; type: physicochemical
Experimental: (§1) To evaluate the absorption and fluorescence properties of the phosphor compound B-1 synthesized in Example 1, the changes in the absorption and fluorescence spectra of B-1 were measured in aqueous solution and in the presence of Erwinia amylovora, the causal pathogen of fire blight in fruit trees, and the results are shown in FIG. 2.
(§2) Specifically, the E. amylovora used in the experiment was cultured overnight at 26° C. in Luria-Bertani (LB) liquid medium. After cultivation, E. amylovora was harvested by centrifugation at 10,000 ref. First, B-1 was added, and its absorption and fluorescence spectra were analyzed in aqueous solution. Then, E. amylovora (4.3×10^8 CFU) was added to the aqueous solution containing B-1, and the changes in the absorption and fluorescence spectra were analyzed. A UV/Vis spectrophotometer (Agilent, USA) was used to analyze the absorbance spectra, and a fluorescence spectrophotometer (SHIMADZU CORP. RF-6000, Japan) was used for fluorescence spectra analysis. For all spectral measurements, a standard quartz cell with a path length of 1 cm (Hellma Analytics, Germany) was used.
(§3) The measurement results are shown in FIG. 2, where the absorption and fluorescence spectra of B-1 (10 μM) in aqueous solution are represented by a dashed line, and those in the presence of E. amylovora are represented by a solid line.

E. amylovora [6] = assay: Time-dependent detection capability of B-1 for E. amylovora; type: cell-based, Erwinia amylovora; details: B-1 10 μM, E. amylovora 10^8 CFU/mL in DI H2O, 686 nm, excitation 550 nm, monitored up to 40 minutes
Experimental: Specifically, 10 μM of B-1 was reacted with E. amylovora at a concentration of 10^8 CFU/mL, quantified as described in Example 3, in DI H2O. Fluorescence changes were monitored at 686 nm with 550 nm excitation for up to 40 minutes.

E. amylovora [7] = assay: Staining ability for E. amylovora, confocal laser scanning microscopy; type: cell-based, Erwinia amylovora; details: B-1 30 μM with DAPI 300 nM in PBS, 1 hour
Experimental: Specifically, E. amylovora obtained as described in Example 2 was stained by reacting with 30 μM of B-1 in phosphate-buffered saline (PBS) for 1 hour. To visualize […] E. amylovora, a counterstain with 300 nM of 4′,6-diamidino-2-phenylindole (DAPI) was applied simultaneously. The stained E. amylovora was then washed three times with PBS to remove residual B-1 and DAPI, followed by heat fixation and mounting on a slide glass for imaging using a confocal laser scanning microscope (Carl Zeiss, Germany). During confocal microscopy, differential interference contrast (DIC) images were also captured. The wavelengths used for imaging were as follows: [DAPI] excitation wavelength: 405 nm, emission wavelength: 410-530 nm, [B-1] excitation wavelength: 561 nm, emission wavelength: 600-700 nm.

E. amylovora [8] = assay: Fluorescence response of B-1 according to concentration of E. amylovora; type: cell-based, Erwinia amylovora; details: B-1 10 μM, E. amylovora 2×10^6 to 4×10^8 CFU/mL in DI H2O, excitation 550 nm
Experimental: Specifically, to determine the concentration of E. amylovora obtained as described in Example 2, absorbance at 600 nm was measured (OD600 0.1=1×10^8 cells). E. amylovora was then diluted in DI H2O to concentrations ranging from 2×10^6 to 4×10^8 CFU/mL, and each dilution was reacted with 10 μM of B-1. Fluorescence intensity at 686 nm was recorded after excitation at 550 nm, and plotted on a graph.

Erwinia amylovora = assay: Absorption and fluorescence change of B-1 in the presence of E. amylovora; type: cell-based; details: B-1 10 μM, E. amylovora 4.3×10^8 CFU
Experimental: as §1, §2, §3

SMILES | fluorescence on infected apple twigs, spraying (E. amylovora [1]; 100 μM B-1 sprayed, 365 nm flashlight) | fluorescence of B-1-soaked swab rubbed onto infected apple blossoms and leaves (E. amylovora [1]; cotton swab soaked with B-1, 365 nm flashlight) | fluorescence of contaminated areas of pruning shears and trowel (E. amylovora [2]) | lowest detectable level of E. amylovora on actual plant surfaces (E. amylovora [3]; ImageJ quantification) | red fluorescence on immature apples and apple blossoms (E. amylovora [3]; E. amylovora 10^2 to 10^8 CFU/mL brushed on, 10 minutes) | lowest detectable concentration of E. amylovora (E. amylovora [4]) | maximum absorption ([5]; B-1 10 μM in aqueous solution) | fluorescence in aqueous solution ([5]; B-1 10 μM, aqueous solution, excitation 550 nm) | time to rapid fluorescence increase (E. amylovora [6]) | staining of E. amylovora (confocal fluorescence) (E. amylovora [7]) | fluorescence intensity at 686 nm versus E. amylovora concentration (E. amylovora [8]) | change of absorption spectrum upon addition of E. amylovora (Erwinia amylovora) | wavelength of highest fluorescence increase (Erwinia amylovora; excitation 550 nm) | fluorescence change upon addition of E. amylovora (Erwinia amylovora; excitation 550 nm, compared to aqueous condition alone)
CN(C)c1ccc2cc3cc(C(=C(C#N)C#N)c4ccccc4)oc3cc2c1 [Compound B-1] | red fluorescence was observed | red fluorescence was emitted from the swab | emitted red fluorescence | 10^2 CFU/mL | red fluorescence was observed for all concentrations | 10^2 CFU/mL | 550 nm | little to no fluorescence | ≤ 10 min | capable of staining live E. amylovora and produces strong red fluorescence | increased in proportion to the concentration of E. amylovora | slight overall increase | 686 nm | significant enhancement
N=C(N)c1ccc(-c2cc3ccc(C(=N)N)cc3[nH]2)cc1 [DAPI, 4′,6-diamidino-2-phenylindole, reference compound] |  |  |  |  |  |  |  |  |  | fluorescence signals were observed |  |  |  | 
